The values that follow come from publication PMC6832257, “Design, Synthesis and Evaluation of New Indolylpyrimidylpiperazines for Gastrointestinal Cancer Therapy” (Molecules, 2019).

Series [1] addresses T1, hA3AR (Homo sapiens, UniProt P0DMS8).
T1 construct: expressed in transfected cells; host or cells: HEK293
T1 sequence (P0DMS8 1-318): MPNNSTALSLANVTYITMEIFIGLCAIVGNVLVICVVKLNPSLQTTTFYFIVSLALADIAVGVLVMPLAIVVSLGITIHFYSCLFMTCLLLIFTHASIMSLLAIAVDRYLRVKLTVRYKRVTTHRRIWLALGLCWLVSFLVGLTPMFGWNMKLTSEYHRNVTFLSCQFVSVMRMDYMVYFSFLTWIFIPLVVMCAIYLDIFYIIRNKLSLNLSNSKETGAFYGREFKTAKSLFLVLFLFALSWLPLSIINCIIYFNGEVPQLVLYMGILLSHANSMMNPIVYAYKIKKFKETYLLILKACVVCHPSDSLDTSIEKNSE
Nature of the series: TGFα shedding assay at hA3AR. Format: cell-based. The note with it: for Emax: HEK293 cells; for EC50: hA3AR-expressing HEK293 cells. As to the method:
This recently-developed assay utilizes an alkaline phosphatase-TGFα fusion protein reporter system to quantitatively evaluate specific GPCR-mediated G protein activation (shown in Figure 3) of test compounds [22].
Expression vectors (250 ng of AP-TGFα plasmid, 100 ng of hA2AAR/hA3AR plasmid and 50 ng of Gα protein) were transfected into HEK293 cells using Lipofectamine 2000 (1.25 μL/well) in 12-well plates. Transfection of siRNA (final concentration: 10 nM) was conducted with Lipofectamine RNAiMAX (1 μL/well), 48 h before assay to prevent interference from other signaling pathways. Transfected cells were detached with brief treatment with phosphate-buffered saline (PBS) containing 0.05% trypsin and 0.52 mM ethylenediaminetetraacetic acid (EDTA). The cell suspension was pelleted via centrifugation (190 g, 5 min). Trypsin was removed from the cells via resuspension in PBS, followed by 5 min of incubation at room temperature. Cells were subsequently pelleted with centrifugation (190 g, 5 min) and resuspended in Hank’s Balanced Salt Solution (HBSS) containing 5 mM 4-(2-hydroxyethyl)-1-piperazineethanesulfonic acid (HEPES) (pH 7.4). Resuspended cells were plated in 90 μL/well in 96-well plate and incubated at 37 °C in 5% CO2 for 30 min. 10 μL of 10X concentration of compounds were added and incubated for 1 h at 37 °C in 5% CO2. Plates were centrifuged at 190 g for 2 min. […] per well of conditioned medium (10 mM p-NPP, 40 mM Tris-HCl (pH 9.5), 40 mM NaCl & 10 mM MgCl2) was transferred into a conditioned medium plate and 80 µL per well of conditioned medium was added to the test compound plate. Absorbance at 405 nm (OD405) of both plates was read before and after a 1-h incubation at 37 °C using a microplate reader.

Another series addresses hA1. The note with it: cited from earlier work.
For another series, the target named is T2, hA2AAR (Homo sapiens, UniProt P29274).
T2 construct: expressed in transfected cells; host or cells: HEK293
T2 sequence (P29274 whole entry): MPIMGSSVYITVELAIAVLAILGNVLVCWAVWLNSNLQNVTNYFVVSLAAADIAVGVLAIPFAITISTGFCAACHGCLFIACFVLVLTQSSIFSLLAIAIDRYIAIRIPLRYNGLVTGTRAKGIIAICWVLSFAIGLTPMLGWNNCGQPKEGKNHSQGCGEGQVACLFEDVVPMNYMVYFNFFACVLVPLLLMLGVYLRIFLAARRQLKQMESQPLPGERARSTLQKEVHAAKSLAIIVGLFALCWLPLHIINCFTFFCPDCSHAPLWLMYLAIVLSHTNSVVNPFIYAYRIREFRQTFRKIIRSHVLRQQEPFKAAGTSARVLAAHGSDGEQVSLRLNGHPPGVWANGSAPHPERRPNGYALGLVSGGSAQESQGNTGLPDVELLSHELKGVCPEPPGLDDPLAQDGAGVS
As to conditions: ratio of binding affinities; cited from earlier work.

Series [2] deals with T1, hA3AR. The note with it: read-out: Ki hA3; cited from earlier work.
Another series concerns the target hA2B. As to conditions: cited from earlier work.
A further series relates to HepG2 cell line. Briefly: MTT cytotoxicity assay, HepG2. As to conditions: Homo sapiens, 72 h. It counts as cell-based. On the procedure:
The HepG2 cell line was also cultured in accordance with the ATCC protocol.
(§1) The cytotoxicity of compound 4 was determined by 3-(4,5-dimethylthiazol-2-yl)-2,5-diphenyltetrazolium bromide (MTT) assay. The cells were harvested from culture flasks by trypsinisation and seeded into 96-well microculture plates (Costar, Corning, USA) at the seeding density of 6000 cells per well or 10,000 per well (CCD18Co). After the cells were allowed to resume exponential growth for 24 h, they were exposed to compound 4 or 2-Cl-IB-MECA in media for 72 h. The drugs were diluted in complete medium at the desired concentration, and 100 μL of the drug solution was added to each well and serially diluted to other wells. After exposure for 72 h, drug solutions were replaced with 100 μL of MTT in complete media (5 mg ml^−1) and incubated for an additional 1 h. Subsequently, the medium was aspirated and the purple formazan crystals formed in viable cells were dissolved in 100 μL of dimethyl sulfoxide (DMSO) per well. Optical densities were measured at 570 nm with a microplate reader. The quantity of viable cells was expressed in terms of treated/control (T/C) values by comparison to untreated control cells, and 50% inhibitory concentrations (IC50) were calculated from concentration-effect curves by interpolation using GraphPad Prism (Version 5.0, GraphPad Software, USA). […]
(In general: Formazan colour is commonly taken as a measure of viable cells.)

Series [3] concerns the target T1, hA3AR. The note with it: cited from earlier work.
The next series deals with Caco-2 cell line. Nature of the series: MTT cytotoxicity assay, Caco-2. Format: cell-based. As to conditions: Homo sapiens; Caco-2, MTT, 72 h. On the procedure: (§2) Human colorectal carcinoma cell lines, HCT-116 and Caco-2, were used as models for colorectal cancer cells overexpressing hA3AR. Human normal colon cell line CCD-18Co was used as a model for normal colon cells that express normal levels of hA3AR. The HCT-116, Caco-2 and CCD-18Co cell lines were all cultured in accordance with the ATCC protocols.
as §1, with “reader.” for “reader. The quantity of viable cells was expressed in terms of treated/control (T/C) values by comparison to untreated control cells, and 50% inhibitory concentrations (IC50) were calculated from concentration-effect curves by interpolation using GraphPad Prism (Version 5.0, GraphPad Software, USA).”

A further series relates to HCT-116 cell line. Briefly: MTT cytotoxicity assay, HCT-116. It counts as cell-based. The note with it: Homo sapiens; HCT-116, MTT, 72 h. On the procedure: as §2
as §1, with “reader.” for “reader. The quantity of viable cells was expressed in terms of treated/control (T/C) values by comparison to untreated control cells, and 50% inhibitory concentrations (IC50) were calculated from concentration-effect curves by interpolation using GraphPad Prism (Version 5.0, GraphPad Software, USA).”

For a further series, the system named is CCD-18Co cell line. Briefly: MTT cytotoxicity assay, CCD-18Co. Format: cell-based. As to conditions: Homo sapiens, CCD-18Co normal colon cell line, 72 h. On the procedure: as §2
as §1, with “reader.” for “reader. The quantity of viable cells was expressed in terms of treated/control (T/C) values by comparison to untreated control cells, and 50% inhibitory concentrations (IC50) were calculated from concentration-effect curves by interpolation using GraphPad Prism (Version 5.0, GraphPad Software, USA).”

Another series is described as follows: UV-vis stability assay. It counts as physicochemical. The note with it: 50 μM in water, RPMI-1640 and DMEM culture medium over 72 h. On the procedure: Stock solution of 50 μM of compound 4 was prepared in DMSO. Two quartz cuvettes were soaked in 70% ethanol in water for 1h. The quartz cuvettes were subsequently left to dry in a biological safety cabinet. When both quartz cuvettes were dry, the quartz cuvettes, i.e., sample cuvette and blank cuvette, were filled with water or culture media (RPMI-1640 or DMEM) and parafilmed before being transferred into a UV-vis spectrophotometer (USA). The UV-vis spectrophotometer was auto-zeroed and the background was scanned from wavelengths of 200 nm to 800 nm. The sample cuvette was removed from the UV-vis spectrophotometer and transferred into the biological safety cabinet. Compound 4 was dissolved at a final concentration of 50 μM in 1.5 mL of water, RPMI or DMEM containing 10% FBS (without phenol red). The UV−vis profiles of the samples were monitored using UV-vis over 72 h at 1 h intervals from 200 to 800 nm.

The test system of series [4] is human colon carcinoma patients. The note with it: phase II; cited from earlier work.
Where [5] appears, read: HEK293, efficacy as compared to adenosine, read-out: Emax.

Structures are written as SMILES. Where two headings read alike, the source gives them in different places.

A word on the Emax: it is the size of the effect at its maximum, as opposed to the concentration needed. One may read the Ki as a dissociation constant, usually derived from enzyme kinetics or from competition with a known ligand. Broadly, the IC50 is the concentration at which inhibition is half-maximal. Read a high IC50 as a need for much substance. One may read the melting point as the temperature, or range, at which the solid turns liquid. A word on the EC50: it is the midpoint of the concentration-response curve.

For the compound `Nc1ncnc2c1ncn2[C@@H]1O[C@H](CO)[C@@H](O)[C@H]1O` [Adenosine, reference compound], on hA3AR [1] (setting [5]), the Emax is 100%.

As for `Cc1cc(C)nc(N2CCN(C(=O)Cc3c(C)[nH]c4ccccc34)CC2)n1` [Compound 1, indolylpyrimidylpiperazine (IPP)], the Ki on hA1 is above 100 µM; on hA3AR [2], above 100 µM; at hA2B, above 20 µM. For the same compound, the “selectivity hA2AAR/hA3AR” value at hA2AAR is above 12.

With `Cc1cc(C)nc(N2CCN(CCc3c(C)[nH]c4ccccc34)CC2)n1` [Compound 2, decarbonyl IPP], the Ki at hA1 was above 100 µM; on hA2B, above 20 µM.

Regarding `CNC(=O)[C@H]1O[C@@H](n2cnc3c(NCc4cccc(I)c4)nc(Cl)nc32)[C@H](O)[C@@H]1O` [Compound 2-Cl-IB-MECA, 2-Cl-IB-MECA, reference compound], the IC50 in the series with HepG2 cell line was 13 ± 3 µM; in the series with Caco-2 cell line, 31 ± 4 µM; with HCT-116 cell line, 21 ± 6 µM. At hA3AR [3], the β-arrestin translocation response is 102 ± 13%.

On to `Cc1cc(C)nc(N2CCN(CC(=O)c3c[nH]c4ccccc34)CC2)n1` [Compound 3, 2-(4-(4,6-Dimethylpyrimidin-2-yl)piperazin-1-yl)-1-(1H-indol-3-yl)ethanone], for which the melting point is 165 °C (dec.). Also, the EC50 result at hA3AR [1] was “essentially inactive”.

In the case of `COc1cccc2c(C(=O)CN3CCN(c4nc(C)cc(C)n4)CC3)c[nH]c12` [Compound 4, 2-(4-(4,6-Dimethylpyrimidin-2-yl)piperazin-1-yl)-1-(7-methoxy-1H-indol-3-yl)ethanone], the melting point is 162 °C (dec.). This compound gave an IC50 in the series on HepG2 cell line of 30 ± 7 µM. Moreover, it took 176 ± 48 µM to reach half-maximal inhibition in the series on CCD-18Co cell line (IC50). Further, on hA3AR [1] (setting [5]), the Emax came out at 30%. Moreover, at hA3AR [1] (efficacy as compared to adenosine), the Emax is 31%. Moreover, the EC50 on hA3AR [1] (read-out: EC50) was found to be 2.89 ± 0.55 µM. For the same compound, the “Stability (UV-vis)” value in the series “UV-vis stability assay” is reported as “excellent stability”. In the series on Caco-2 cell line, this compound showed an IC50 of 77 ± 10 µM. In the series on HCT-116 cell line, this compound showed an IC50 of 84 ± 9 µM.

Regarding `Cc1cc(C)nc(N2CCN(CC(=O)c3c[nH]c4c(Cl)cccc34)CC2)n1` [Compound 5, 2-(4-(4,6-Dimethylpyrimidin-2-yl)piperazin-1-yl)-1-(7-chloro-1H-indol-3-yl)ethanone], the melting point was 163 °C (dec.). The Emax on hA3AR [1] (setting [5]) is 77%. For the same compound, on hA3AR [1] (read-out: EC50), the EC50 worked out at 13.4 ± 2.96 µM.

Take `Cc1cc(C)nc(N2CCN(CC(=O)c3c[nH]c4c([N+](=O)[O-])cccc34)CC2)n1` [Compound 6, 2-(4-(4,6-Dimethylpyrimidin-2-yl)piperazin-1-yl)-1-(7-nitro-1H-indol-3-yl)ethanone]: the melting point was 165 °C (dec.). The Emax on hA3AR [1] (setting [5]) stood at 72%. In addition, the EC50 on hA3AR [1] (read-out: EC50) is 33.2 ± 16.5 µM.

`CNC(=O)[C@H]1O[C@@H](n2cnc3c(NCc4cccc(I)c4)ncnc32)[C@H](O)[C@@H]1O` [IB-MECA]: the “disease stabilization, share of patients” value in [4] is reported as 35%. Besides, the β-arrestin translocation response on hA3AR [3] is on record as 100 ± 7%.

For `OC[C@H]1O[C@@H](n2cnc3c(NCc4cccc(I)c4)ncnc32)[C@H](O)[C@@H]1O` [MRS541], at hA3AR [3], the β-arrestin translocation response is 30.8 ± 1.6%.
